The target in assay [1] is Glypican-3 (Homo sapiens) (UniProt P51654). Briefly: Binding affinity to GPC3 in human Huh-7 cells assessed as increase in fluorescence (red color) by immunofluorescence staining based assay. Type of assay: cell-based.
For assay [2] the target is unchanged. Briefly: Binding affinity to GPC3 in human Hep3B cells assessed as increase in fluorescence (red color) by immunofluorescence staining based assay. Type of assay: cell-based.
For assay [3] the target is unchanged. Briefly: Binding affinity to GPC3 in human HeLa cells assessed as increase in fluorescence (red color) measured after 4 hrs incubation by immunofluorescence staining based assay. Type of assay: cell-based.
Assay [4] has the same target. Briefly: Binding affinity to GPC3 in human LX-2 cells assessed as increase in fluorescence (red color) measured after 4 hrs incubation by immunofluorescence staining based assay. Type of assay: cell-based.
Another assay deals with Hep 3B2. Briefly: Antiproliferative activity against GPC3-positive human Hep3B cells assessed as cytotoxicity measured after 72 hrs by MTT assay. Type of assay: functional, cell-based.
Another assay deals with HeLa. Briefly: Antiproliferative activity against GPC3-negative human HeLa cells assessed as cytotoxicity measured after 72 hrs by MTT assay. Type of assay: functional, cell-based. For orientation: Formazan colour is commonly taken as a measure of viable cells.
The subject of another assay is Huh-7. Briefly: Antiproliferative activity against GPC3-positive human Huh-7 cells assessed as cytotoxicity measured after 72 hrs by MTT assay. Type of assay: functional, cell-based. The note with it: Huh-7, 72 h.
The next assay relates to LX-2. Briefly: Antiproliferative activity against GPC3-negative human LX-2 cells assessed as cytotoxicity measured after 72 hrs by MTT assay. Type of assay: functional, cell-based. The note with it: LX-2, 72 h.

Calls of active or inactive are those of the source. No cut-off for these calls is given here. Starred links: 1 amine or outer side, 2 acyl side, 3 side chain; linkers in the order of their positions; H or OH if unused. Positions of bridges follow the written chain, without caps; N, C: chain ends. Non-standard residues stand in square brackets, D forms with d. Residues, ends and D or L forms follow the SMILES beside them. Chains are numbered I, II in the order given. *: point of attachment. X2 = CC[C@H](C)[C@@H]([C@@H](CC(=O)N1CCC[C@H]1[C@H](OC)[C@@H](C)C(=O)N[C@H](C)[C@H](O)c1ccccc1)OC)N(C)[C@H](C(=O)NC(=O)[C@H](C(C)C)N(C)C(=O)OCc1ccc(NC(=O)[C@H](CCCNC(N)=O)NC(=O)[C@@H](NC(=O)CCCCCN2C(=O)CC(*)C2=O)C(C)C)cc1)C(C)C; Hexanoyl(6-succinimido-3yl) = O=C1CC([*:1])C(=O)N1CCCCCC(=O)[*:2]; Dolaproine = CO[C@@H]([C@@H]1CCCN1)[C@@H](C)C(=O)O; Dil = CC[C@H](C)[C@H](NC)[C@@H](CC(=O)O)OC; PABC = O=C(OCc1ccc(N[*:1])cc1)[*:2]; X1 = C[C@@H](N*)[C@@H](O)c1ccccc1; Cit = NC(=O)NCCC[C@H](N)C(=O)O; NMeV = CN[C@H](C(=O)O)C(C)C

Sequence of Glypican-3 (Homo sapiens) (P51654 25-358 limits assumed): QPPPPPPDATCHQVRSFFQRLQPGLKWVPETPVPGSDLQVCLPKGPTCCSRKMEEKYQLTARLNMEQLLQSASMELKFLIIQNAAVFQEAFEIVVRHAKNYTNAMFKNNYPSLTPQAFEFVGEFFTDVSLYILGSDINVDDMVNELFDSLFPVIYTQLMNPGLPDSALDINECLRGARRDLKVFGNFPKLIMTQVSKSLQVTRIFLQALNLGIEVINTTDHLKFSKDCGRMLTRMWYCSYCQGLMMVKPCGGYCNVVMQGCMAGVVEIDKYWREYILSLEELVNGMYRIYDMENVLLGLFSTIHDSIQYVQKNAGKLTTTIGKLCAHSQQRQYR
Sequence of Glypican-3 (Homo sapiens) (P51654 359-554 limits assumed): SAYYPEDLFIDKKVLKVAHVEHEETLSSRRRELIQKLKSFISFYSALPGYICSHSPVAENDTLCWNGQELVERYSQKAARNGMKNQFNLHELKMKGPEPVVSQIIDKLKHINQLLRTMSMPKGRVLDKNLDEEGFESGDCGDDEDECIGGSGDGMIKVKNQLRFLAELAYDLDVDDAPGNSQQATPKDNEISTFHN

Turning to `CC[C@H](C)[C@@H]([C@@H](CC(=O)N1CCC[C@H]1[C@H](OC)[C@@H](C)C(=O)N[C@H](C)[C@@H](O)c1ccccc1)OC)N(C)C(=O)[C@@H](NC(=O)[C@H](C(C)C)N(C)C(=O)OCc1ccc(NC(=O)[C@H](CCCNC(N)=O)NC(=O)[C@@H](NC(=O)CCCCCN2C(=O)CC(SC[C@H](NC(=O)CCCCC[N+]3=C(/C=C/C=C/C=C4\N(C)c5ccc6ccccc6c5C4(C)C)C(C)(C)c4c3ccc3ccccc43)C(=O)N[C@@H](CO)C(=O)N[C@@H](CC(N)=O)C(=O)N[C@@H](CC(=O)O)C(=O)N[C@@H](CCCNC(=N)N)C(=O)N3CCC[C@@H]3C(=O)N3CCC[C@@H]3C(=O)N[C@@H](CC(N)=O)C(=O)N[C@H](C(=O)N[C@@H](CC(C)C)C(=O)N[C@@H](CCC(N)=O)C(=O)N[C@@H](CCCCN)C(=O)N[C@@H](CCCNC(=N)N)C(N)=O)[C@@H](C)CC)C2=O)C(C)C)cc1)C(C)C` (stereo not given in full), the outcome in assay [1], in assay [2], in assay [3] and in assay [4] was Active.
By IC50 is commonly meant the concentration needed to halve the response being measured. On to `CC[C@H](C)[C@@H]([C@@H](CC(=O)N1CCC[C@H]1[C@H](OC)[C@@H](C)C(=O)N[C@H](C)[C@@H](O)c1ccccc1)OC)N(C)C(=O)[C@@H](NC(=O)[C@H](C(C)C)N(C)C(=O)OCc1ccc(NC(=O)[C@H](CCCNC(N)=O)NC(=O)[C@@H](NC(=O)CCCCCN2C(=O)CC(SC[C@H](N)C(=O)N[C@@H](CCCNC(=N)N)C(=O)N[C@@H](CC(C)C)C(=O)N[C@@H](CC(N)=O)C(=O)N[C@H](C(=O)NCC(=O)NCC(=O)N[C@H](C(=O)N[C@@H](Cc3ccc(O)cc3)C(=O)N[C@@H](Cc3ccccc3)C(=O)N[C@@H](CC(C)C)C(=O)N[C@H](C(=O)N[C@H](C(=O)N[C@@H](CCCNC(=N)N)C(=O)N[C@@H](CCC(N)=O)C(N)=O)[C@@H](C)O)[C@@H](C)O)[C@@H](C)O)C(C)C)C2=O)C(C)C)cc1)C(C)C` (stereo not given in full) (I: H-CRLNVGGTYFLTTRQ-NH2 / II: V[Cit][PABC][NMeV]V[Dil][Dolaproine]-X1; linker I:1-II:N via Hexanoyl(6-succinimido-3yl)), for which the concentration for half-maximal inhibition (IC50) amounted to 81.2 nM in the assay on Hep 3B2, 70.4 nM in the assay on HeLa, 67.9 nM in the assay on Huh-7 and 30.8 nM in the assay on LX-2.
For `CC[C@H](C)[C@@H]([C@@H](CC(=O)N1CCC[C@H]1[C@H](OC)[C@@H](C)C(=O)N[C@H](C)[C@@H](O)c1ccccc1)OC)N(C)C(=O)[C@@H](NC(=O)[C@H](C(C)C)N(C)C(=O)OCc1ccc(NC(=O)[C@H](CCCNC(N)=O)NC(=O)[C@@H](NC(=O)CCCCCN2C(=O)CC(SC[C@H](N)C(=O)N[C@@H](CC(=O)O)C(=O)N[C@@H](Cc3ccc(O)cc3)C(=O)N[C@@H](CCC(=O)O)C(=O)N[C@@H](CCSC)C(=O)N[C@@H](Cc3cnc[nH]3)C(=O)N[C@@H](CC(C)C)C(=O)N[C@@H](Cc3c[nH]c4ccccc34)C(=O)N[C@@H](Cc3c[nH]c4ccccc34)C(=O)NCC(=O)N[C@H](C(=O)N[C@@H](CCC(=O)O)C(=O)N[C@@H](CC(C)C)C(N)=O)[C@@H](C)O)C2=O)C(C)C)cc1)C(C)C` (stereo not given in full) (I: H-CDYEMHLWWGTEL-NH2 / II: V[Cit][PABC][NMeV]V[Dil][Dolaproine]-X1; linker I:1-II:N via Hexanoyl(6-succinimido-3yl)), in that order: over 100 nM, over 100 nM, 41.5 nM and 58.1 nM.
The like results for `CC[C@H](C)[C@@H]([C@@H](CC(=O)N1CCC[C@H]1[C@H](OC)[C@@H](C)C(=O)N[C@H](C)[C@@H](O)c1ccccc1)OC)N(C)C(=O)[C@@H](NC(=O)[C@@H](NC)C(C)C)C(C)C` (H-[NMeV]V[Dil][Dolaproine]-X1) were, in that order, 8.63 nM, 1.47 nM, 1.05 nM and 0.46 nM.
The like results for `CC[C@H](C)[C@@H]([C@@H](CC(=O)N1CCC[C@H]1[C@H](OC)[C@@H](C)C(=O)N[C@H](C)[C@@H](O)c1ccccc1)OC)N(C)C(=O)[C@@H](NC(=O)[C@H](C(C)C)N(C)C(=O)OCc1ccc(NC(=O)[C@H](CCCNC(N)=O)NC(=O)[C@@H](NC(=O)CCCCCN2C(=O)CC(SC[C@H](N)C(=O)N[C@@H](CC(=O)O)C(=O)N[C@@H](Cc3cnc[nH]3)C(=O)N[C@@H](CC(C)C)C(=O)N[C@@H](C)C(=O)N[C@@H](CO)C(=O)N[C@@H](CC(C)C)C(=O)N[C@@H](Cc3c[nH]c4ccccc34)C(=O)N[C@@H](Cc3c[nH]c4ccccc34)C(=O)NCC(=O)N[C@H](C(=O)N[C@@H](CCC(=O)O)C(=O)N[C@@H](CC(C)C)C(N)=O)[C@@H](C)O)C2=O)C(C)C)cc1)C(C)C` (stereo not given in full) (I: H-CDHLASLWWGTEL-NH2 / II: V[Cit][PABC][NMeV]V[Dil][Dolaproine]-X1; linker I:1-II:N via Hexanoyl(6-succinimido-3yl)) were, in that order, over 100 nM, over 100 nM, over 100 nM and over 100 nM.
`CC[C@H](C)[C@@H]([C@@H](CC(=O)N1CCC[C@H]1[C@H](OC)[C@@H](C)C(=O)N[C@H](C)[C@H](O)c1ccccc1)OC)N(C)[C@H](C(=O)NC(=O)[C@H](C(C)C)N(C)C(=O)OCc1ccc(NC(=O)[C@H](CCCNC(N)=O)NC(=O)[C@@H](NC(=O)CCCCCN2C(=O)CC(SC[C@H](N)C(=O)N[C@H](C(=O)N[C@@H](Cc3cnc[nH]3)C(=O)N[C@H](C(=O)N[C@@H](CO)C(=O)N3CCC[C@H]3C(=O)N[C@@H](CC(N)=O)C(=O)N[C@@H](CCC(N)=O)C(=O)NCC(=O)NCC(=O)N[C@@H](CC(C)C)C(=O)N3CCC[C@H]3C(=O)N[C@@H](CO)C(=O)O)C(C)C)[C@@H](C)O)C2=O)C(C)C)cc1)C(C)C` (stereo not given in full) (H-C(X2)THVSPNQGGLPS-OH): the IC50 in the assay with Hep 3B2 is over 100 nM; with HeLa, over 100 nM; in the assay with Huh-7 it was 40 nM; in the assay on LX-2 it was 48.9 nM.
On to `CC[C@H](C)[C@@H]([C@@H](CC(=O)N1CCC[C@H]1[C@H](OC)[C@@H](C)C(=O)N[C@H](C)[C@@H](O)c1ccccc1)OC)N(C)C(=O)[C@@H](NC(=O)[C@H](C(C)C)N(C)C(=O)OCc1ccc(NC(=O)[C@H](CCCNC(N)=O)NC(=O)[C@H](NC(=O)CCCCCN2C(=O)CC(SC[C@H](NC(=O)CCCCC[N+]3=C(/C=C/C=C/C=C4\N(C)c5ccc6ccccc6c5C4(C)C)C(C)(C)c4c3ccc3ccccc43)C(=O)N[C@@H](CC(=O)O)C(=O)N[C@@H](Cc3ccc(O)cc3)C(=O)N[C@@H](CCC(=O)O)C(=O)N[C@@H](CCSC)C(=O)N[C@@H](Cc3cnc[nH]3)C(=O)N[C@@H](CC(C)C)C(=O)N[C@@H](Cc3c[nH]c4ccccc34)C(=O)N[C@@H](Cc3c[nH]c4ccccc34)C(=O)NCC(=O)N[C@H](C(=O)N[C@@H](CCC(=O)O)C(=O)N[C@@H](CC(C)C)C(N)=O)[C@H](C)O)C2=O)C(C)C)cc1)C(C)C` (stereo not given in full), for which the Activity entry in assay [2] and in assay [3] was “Active; Compound Showed Minimal Binding” each time. The result in assay [4] was Active.
As to `CC[C@H](C)[C@@H]([C@@H](CC(=O)N1CCC[C@H]1[C@H](OC)[C@@H](C)C(=O)N[C@H](C)[C@@H](O)c1ccccc1)OC)N(C)C(=O)[C@@H](NC(=O)[C@H](C(C)C)N(C)C(=O)OCc1ccc(NC(=O)[C@H](CCCNC(N)=O)NC(=O)[C@@H](NC(=O)CCCCCN2C(=O)CC(SC[C@H](N)C(=O)N[C@@H](Cc3ccc(O)cc3)C(=O)N[C@@H](Cc3ccccc3)C(=O)N[C@@H](CC(C)C)C(=O)N[C@H](C(=O)N[C@H](C(=O)N[C@@H](CCCNC(=N)N)C(=O)N[C@@H](CCC(N)=O)C(N)=O)[C@@H](C)O)[C@@H](C)O)C2=O)C(C)C)cc1)C(C)C` (stereo not given in full) (I: H-CYFLTTRQ-NH2 / II: V[Cit][PABC][NMeV]V[Dil][Dolaproine]-X1; linker I:1-II:N via Hexanoyl(6-succinimido-3yl)), the concentration for half-maximal inhibition (IC50) with Hep 3B2 is over 100 nM; in the assay with HeLa, over 100 nM; in the assay with Huh-7, 30.9 nM; with LX-2, over 100 nM.
As to `CC[C@H](C)[C@@H]([C@@H](CC(=O)N1CCC[C@H]1[C@H](OC)[C@@H](C)C(=O)N[C@H](C)[C@@H](O)c1ccccc1)OC)N(C)C(=O)[C@@H](NC(=O)[C@H](C(C)C)N(C)C(=O)OCc1ccc(NC(=O)[C@H](CCCNC(N)=O)NC(=O)[C@@H](NC(=O)CCCCCN2C(=O)CC(SC[C@H](N)C(=O)N[C@@H](C)C(=O)N[C@@H](CC(C)C)C(=O)N[C@@H](CC(C)C)C(=O)N[C@@H](C)C(=O)N[C@@H](CC(N)=O)C(=O)N[C@@H](Cc3cnc[nH]3)C(=O)N[C@@H](CCC(=O)O)C(=O)N[C@@H](CCC(=O)O)C(=O)N[C@@H](CC(C)C)C(=O)N[C@@H](Cc3ccccc3)C(=O)N[C@@H](CCC(N)=O)C(=O)N[C@H](C(N)=O)[C@@H](C)O)C2=O)C(C)C)cc1)C(C)C` (stereo not given in full) (I: H-CALLANHEELFQT-NH2 / II: V[Cit][PABC][NMeV]V[Dil][Dolaproine]-X1; linker I:1-II:N via Hexanoyl(6-succinimido-3yl)), the IC50 with Hep 3B2 is over 100 nM; in the assay on HeLa it was over 100 nM; in the assay with Huh-7, 81.4 nM; in the assay on LX-2 it was over 100 nM.

(Values after ChEMBL document CHEMBL6182945, “MMAE-Based Peptide-Drug Conjugates Targeting GPC3 for Precision Chemoradiotherapy in Hepatocellular Carcinoma” (J Med Chem, 2025).)
